Results as given in US4829086A, “Soft β-adrenergic blocking agents” (priority 1985, dated 1989).
Structures can show the parent of a compound that is named as a salt. Where two headings read alike, the source gives them in different places.

Columns and labels:
[1] = system: heart rate response to isoproterenol (β-adrenergic); experiment: Heart rate response to isoproterenol in rats (initial drug screening); format: in vivo, male Spraque-Dawley rats; details: 6 mg/kg i.p.
Excerpt: Initial Drug Screening Protocol. Thirty-two male Spraque-Dawley rats (Blue Spruce Farms) initially weighing 300-450 gm were divided into seven different groups, each for a different drug to be tested: 12(n=4), 14(n=4), 17(n=5), 13(n=4) and 18(n=3), corresponding to the designated compounds 12, 14, 17, 13 and 18 (number of animals), respectively. The other two groups were controls (n=8, isoproterenol alone pretreated with carrier) and those treated with a known β-blocker, dl-propranolol (n=3). Ech animal was anesthetized with sodium pentobarbital (45 mg/kg) and the carotid artery was cannulated with PE-50 tubing. The cannula was subcutaneously threaded around the neck and exteriorized dorsally between the shoulder blades. Th cannula was filled with a heparin solution (300 μg/mL) and sealed with a solid 22 gauge stylet. The animals were housed in individual stainless steel cages, and two days were allowed for recovery from the surgery. Food and water were provided ad libitum. On the day of the experiment, the blood pressure and heart rate of each rat were monitored with a pressure transducer (Narco-Bio model P-1000) and the data recorded on a four-channel physiograph (Narco-Bio systems Marck IV). One hour was allowed as an equilibration period before any drugs were administered. All beta blockers were administered intraperitoneally at a dose of 6 mg/kg. Compounds 12 and 14 and dl-proranolol were dissolved in normal saline while compounds 13, 17 and 18 were dissolved in an ethanol: water solution (3:1). Depending on the trial, controls were administered the appropriate carrier. One hour after administration of the blocker, isoproterenol (Isuprel®, Wintrop Laboratories) was administered subcutaneously at a dose of 25 μg/kg. Blood pressures and heart rate also were recorded 3, 5, 10, 15, 20, 30, 45 and 60 minutes after isoproterenol administration. Both control and experimental animals were unrestrained and free moving in their home cage throughout the experiment. […] However, significant differences in the mean heart rate response amoung the 7 groups were observed: *p<0.005;**p<0.025. Comparisons between groups were made by the Newman-Keuls procedure with significance set at the 95% confidence interval. […] All data are shown as mean±standard error of the mean.

[2] = Enzymatic hydrolytic cleavage in human plasma; format: in vitro ADME; details: for half-life at 1000 µM: human, plasma
Method: Analytical Methods. A high pressure liquid chromatography (HPLC) method was developed for the determination of the rate constants. The chromatographic analysis was performed in a system consisting of Waters Associates Model 600-A Solvent Delivery System, Model U-6K Injector and Model 440 Dual Channel Absorbance Detector operated at 254 and 280 nm. A 30 cm×3.9 mm (internal diameter) reverse phase μBondpack C18 column (Waters Associates), operated at ambient temperature, was used for all separations. When plasma samples were analyzed, the column was protected with a 2.3 cm×3.9 mm (internal diameter) Guard Column (Waters) packed with μBondpack C18/Corasil packing material. The mobile phase used for the separation of 17 and its degradation product, 5, consisted of water, 1-hexane sulfonic acid in acetic acid (B-6 reagent, Waters), 0.1M triethanolamine and methanol (100:1:100:799). […] For the separation of compounds 10-16 and 18 and their degradation product 5, a mobile phase consisting of water, 1-hexane sulfonic acid in acetic acid (B-6 reagent, Waters), 0.1M triethanolamine and methanol (390:1:10:599) was used.
Determination of the Hydrolytic Rate Constants in Aqueous Solutions. A 0.01M phosphate buffer and 0.01N sodium hydroxide solution were prepared from freshly distilled deionized water. This ionic strength was maintained at 0.1M with sodium chloride. The pH of the phosphate buffer was determined at 37.0° C. with a pH meter standardized at this temperature. For determination of the hydrolytic rate constants, a fresh concentrated solution of the ester in methanol was added to the hydrolytic medium previously equilibrated to the desired temperature and mixed thoroughly to result in an initial concentration of about 5×10^-4 mol. liter^-1. All reactions were run under pseudo first order conditions. Samples of 25 μL were injected into the column at various time intervals and the pseudo first order rate constants were determined from disappearance of the compound by linear regression of natural logarithm of the peak height versus time plots. The half-life and standard error of the rate constant were calculated for each run.
Determination of the Enzymatic Hydrolytic Cleavage Rates in Human Plasma. The freshly collected plasma used was obtained from the Civitan Regional Blood Center, Inc. (Gainesville, Fla.) and contained about 80% plasma diluted with anticoagulant citrate phosphate dextrose solution, U.S.P. The plasma was stored in a refrigerator and used within one week from the date it was collected.
A portion of 50 μL of a freshly prepared solution of the compound in methanol was added to 10 mL plasma, previously equilibrated at 37.0° C. in a water bath, and mixed thoroughly to result in an initial concentration of 1×10^-3 mol. liter^-1. One mL samples of plasma were withdrawn from the test medium, mixed immediately with 4.0 mL ice cold 95% v/v ethanol, centrifuged and the supernatant analyzed by HPLC. The first order hydrolytic rate constant was determined as before in the aqueous solutions and the results are listed in TABLE II below.

[3] = system: heart rate response to isoproterenol (β-adrenergic); experiment: Cardiovascular experiments in dogs: blockade of isoproterenol heart rate response; format: in vivo, mongrel dogs
Method: Method. Healthy, mongrel dogs were anesthetized with a combination of morphine sulfate (2.0 mg/kg, subcutaneously) followed in 20 minutes with pentabarbital sodium (15 mg/kg, intravenously). Supplemental pentabarbital was given as necessary. A femoral vein was catheterized with polyethylene tubing to the level of the heart for injecting drug solutions. A polyethylene tube filled with heparinized saline was inserted through the femoral artery and advanced to the thoracic aorta for the measurement of arterial pressure. The left carotid artery was cannulated with a Millar® transducer-tip catheter for measurement of left ventricular pressure (LVP). The rising slope of the LVP signal was differentiated to give dP/dt, an estimate of myocardial contractility. Heart rate was determined via a Grass cardiotachometer triggered by the R wave of the lead II EKG. All variables were recorded on a Grass polygraph.
Dose-response curves were constructed for each experimental variable to graded i.v. doses of the β-adrenergic agonist, isoproterenol. A period of 3-5 minutes was allowed after each injection for variables to return to base-line. Following this, one of the four experimental β-adrenergic blocking agents was given i.v. over a one-minute period. Abbreviated dose-response curves (2-3 dose points) were again constructed to isoproterenol at 15, 30, 45, 60, 75 and 90 minutes after the administration of the test blockers. Using a 50-beat per minute (bpm) increase in heart rate as criteria, the degree of blockade was determined by dividing the dose of isoproterenol needed to produce a 50 bpm increase at various times following administration of an antagonists by the dose needed for this effect during the control period. The doses of the experimental β-adrenergic antagonists given were determined from previous experiments to produce an approximate two- or four-fold blockade of the heart rate response to isoproterenol.

[4] = 1 mg/kg i.v., 15 minute measurements

- Observed first order hydrolytic rate constant k ([2]; 37.0 ± 0.1° C., ± SEM): 0.566 ± 0.027 min⁻¹
- half-life at 1000 µM ([2]; 37.0 ± 0.1° C., read-out: Half-life t1/2): 1.22 min
- half-life at 1000 µM ([2]; read-out: in vitro plasma half-life): ~1 min
SMILES: CC(C)NCC(O)COc1ccc(CC(=O)OC2CC(C)(C)CC(C)(C)C2)cc1 (stereo not drawn) [Compound 17, 3,3,5,5-Tetramethylcyclohexyl 4-(2-hydroxy-3-isopropylamino)propoxyphenylacetate oxalate 3/4 hydrate]
- mean heart rate response to isoproterenol, comparison between groups ([1]; 1 hour before isoproterenol 25 μg/kg s.c., Newman-Keuls, first 20 minutes (17) or first 30 minutes (propranolol)): significantly different from both control- and compound 18-treated groups
- control of heart rate 60 minutes after administration ([1]; FIG. 1): effectively control the heart rate
- mean heart rate response to isoproterenol vs groups treated with compound 12 and 18 ([1]; 10 through 45 minutes following isoproterenol): significantly different than the groups treated with compound 12 and 18
- resting heart rate prior to administration of isoproterenol ([1]; mean ± SEM): 372±19 beat/minute
- Duration, Mean (time at which response to isoproterenol had returned to control levels) ([3]; 1 mg/kg i.v.): ~ 70 min
- Duration, Range (time at which response to isoproterenol had returned to control levels) ([3]; 1 mg/kg i.v.): 45 to 90 min
- Maximal blockade, Mean (time necessary to reach maximal blockade) [3, 4]: 40 min
- Maximal blockade, Range (time necessary to reach maximal blockade) [3, 4]: 30 to 60 min
- duration of action ([3]; i.v.): much more variable and generally longer
